Assay results reported in patent publication US20220144812A1, “QUINOLINE DERIVATIVES AND THEIR USE FOR THE TREATMENT OF CANCER” (Epizyme, Inc., priority 2019, published 2022).
pIC50: −log10 of the molar value. Like-named read-outs stand apart in the source and are kept apart here.

How the values were obtained:
[1] = tested on: H3K18Ac in HB-CLS-2 cells; test: H3K18AC in-cell western (ICW) assay; assay type: cell-based; conditions: read-out: CREBBP ICW IC50
In short: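 HB-CLS-2 cells seeded 16–24 hours before 2 hr compound treatment at 37° C, 5% CO2, then methanol-fixed. H3K18Ac detected with rabbit monoclonal primary (overnight, 4° C) and 800CW anti-rabbit secondary; DRAQ5 stained DNA. Plates imaged at 700 and 800 nm for integrated intensity; IC50 in μM.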

647V cells = test: High throughput proliferation (HTP) assay; assay type: cell-based; conditions: read-out: CREBBP HTP IC50
In short: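 Exponentially growing 647V cells in DMEM with 15% FBS were treated in triplicate with increasing compound concentrations at 37° C, 5% CO2. Viable cell number was read by CellTiter-Glo luminescence on day 7; IC50 in micromolar.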

EP300 (P300(1048-1664)) = molecular target: T1, EP300 (P300(1048-1664)) (Homo sapiens, UniProt Q09472); test: Biochemical assay for EP300, SAMDI; conditions: read-out: EP300 Biochemistry IC50
T1 construct: P300(1048-1664)
T1 sequence (Q09472 1048-1664): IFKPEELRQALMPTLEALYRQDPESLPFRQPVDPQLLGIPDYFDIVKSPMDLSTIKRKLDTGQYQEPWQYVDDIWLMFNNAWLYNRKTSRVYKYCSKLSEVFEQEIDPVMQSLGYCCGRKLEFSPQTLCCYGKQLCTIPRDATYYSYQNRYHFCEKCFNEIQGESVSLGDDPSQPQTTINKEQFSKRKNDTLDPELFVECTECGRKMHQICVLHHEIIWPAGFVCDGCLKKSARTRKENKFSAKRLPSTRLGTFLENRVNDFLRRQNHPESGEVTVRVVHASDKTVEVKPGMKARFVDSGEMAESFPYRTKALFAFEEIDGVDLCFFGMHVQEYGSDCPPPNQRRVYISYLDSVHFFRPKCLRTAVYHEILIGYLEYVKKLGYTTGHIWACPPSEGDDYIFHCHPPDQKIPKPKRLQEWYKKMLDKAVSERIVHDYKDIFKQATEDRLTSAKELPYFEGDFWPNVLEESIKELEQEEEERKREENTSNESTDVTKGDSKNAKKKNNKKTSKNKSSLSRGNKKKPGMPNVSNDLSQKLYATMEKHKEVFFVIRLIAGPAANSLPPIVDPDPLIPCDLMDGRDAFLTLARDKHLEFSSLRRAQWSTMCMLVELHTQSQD
From the text: The following example describes materials and methods relating to a biochemical assay for EP300. IC50 values (micromolar (μM)) are summarized in Table 1, Table 2, and Table 3 under the column labeled: “EP300 Biochemistry IC50 (micromolar).”

CREBBP (1084-1701) = molecular target: T2, CREBBP (1084-1701) (Homo sapiens, UniProt Q92793); test: Biochemical assay for CREBBP (1084-1701), SAMDI; conditions: read-out: CREBBP Biochemistry IC50
T2 construct: measured in the following biochemical assay using CREBBP (1084-1701); purchased
In short: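 CREBBP (1084-1701) preincubated with compound 30 min at RT, then substrate mix (biotin-H3 11-25 K14R/K23R peptide, acetyl-CoA) added for 30 min at RT. Reaction stopped with formic acid, neutralised with sodium bicarbonate. Peptide acetylation read by SAMDI mass spectrometry to derive IC50.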

[2] = Homo sapiens, 647-V, high throughput proliferation
[3] = H3K18Ac in-cell western, HB-CLS-2 cells
[4] = Homo sapiens, 647-V, high throughput proliferation, 647V cells

T2 sequence (Q92793 1084-1701): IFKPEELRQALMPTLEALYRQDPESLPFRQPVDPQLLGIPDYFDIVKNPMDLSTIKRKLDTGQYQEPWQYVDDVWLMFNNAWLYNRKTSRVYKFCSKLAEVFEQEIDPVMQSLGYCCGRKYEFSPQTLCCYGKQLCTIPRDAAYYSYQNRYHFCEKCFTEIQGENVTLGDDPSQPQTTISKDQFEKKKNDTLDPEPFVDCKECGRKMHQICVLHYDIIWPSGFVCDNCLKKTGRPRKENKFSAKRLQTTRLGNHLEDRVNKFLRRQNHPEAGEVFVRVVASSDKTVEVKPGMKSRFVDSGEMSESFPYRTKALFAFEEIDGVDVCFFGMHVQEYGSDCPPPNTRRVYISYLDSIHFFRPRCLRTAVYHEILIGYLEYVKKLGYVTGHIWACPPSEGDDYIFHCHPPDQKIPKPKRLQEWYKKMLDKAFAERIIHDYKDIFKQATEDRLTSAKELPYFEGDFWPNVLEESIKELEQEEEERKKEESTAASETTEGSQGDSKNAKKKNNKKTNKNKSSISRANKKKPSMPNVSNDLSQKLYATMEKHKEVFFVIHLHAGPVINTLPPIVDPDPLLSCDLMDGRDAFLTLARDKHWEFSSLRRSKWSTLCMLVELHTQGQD

Structure (SMILES)	pIC50 ([1]; H3K18Ac in-cell western)	pIC50 (EP300 (P300(1048-1664)); EP300, SAMDI)	pIC50 (CREBBP (1084-1701); SAMDI)	pIC50 [1, 3]	pIC50 ([1]; 2 h, H3K18Ac in HB-CLS-2 cells, 2 hrs compound incubation)	pIC50 (EP300 (P300(1048-1664)); P300(1048-1664), Peptide #233, Ac-CoA, SAMDI mass spectrometry)	pIC50 (CREBBP (1084-1701); Peptide #233, Acetyl-CoA, SAMDI mass spectrometry)	pIC50 (647V cells; [2])	pIC50 (647V cells; [4])	pIC50 (647V cells; high throughput proliferation)	pIC50 (647V cells; Homo sapiens, 647-V, 168 h, 647V cells, day 7, CellTiter-Glo)
CCc1nn(C)c(CN(C)C(=O)c2cc(-c3ccc(NCCNC)c(C)n3)nc3ccc(Cl)cc23)c1C [Compound 586]	5.14	4.63	4.71	–	–	–	–	5.67	–	–	–
CCc1ncc(CN(C)C(=O)c2nc(-c3cccc(Cl)c3)nc3ccc(Cl)cc23)n1C [Compound 37]	6.52	8.21	8.47	–	–	–	–	6.54	–	–	–
CCn1ncc(C(=O)N(C)Cc2cc(-c3ccc(NCCNC)c(C)n3)nc3ccc(Cl)cc23)c1C [Compound 467]	4.70	4.47	≤ 4.30	–	–	–	–	5.25	–	–	–
CCn1ncc(CN(C)C(=O)c2cc(-c3cnc(OCCNC)cn3)nc3ccc(Cl)cc23)c1C [Compound 413]	–	5.13	4.68	5.19	–	–	–	–	5.30	–	–
CCn1ncc(CN(C)C(=O)c2cc(-c3cn(C)cn3)nc3ccc(Cl)cc23)c1C [Compound 119]	5.48	5.89	5.35	–	–	–	–	6.16	–	–	–
CCn1ncc(CN(C)C(=O)c2nc(-c3cc4c(N)nn(CCNC)c4cc3C)nc3ccc(Cl)cc23)c1C [Compound 507]	5.80	5.87	6.25	–	–	–	–	6.00	–	–	–
CNc1[nH]nc2cc(C)c(-c3nc(C(=O)N(C)Cc4cnn(CC(F)(F)F)c4C)c4cc(Cl)ccc4n3)cc12 [Compound 620]	7.17	7.91	7.60	–	–	–	–	7.11	–	–	–
CCn1ncc(CN(C)C(=O)c2cc(-c3ccc(NCCNC)c(C(F)(F)F)n3)nc3ccc(Cl)cc23)c1C [Compound 471]	7.05	8.02	7.45	–	–	–	–	7.54	–	–	–
CNCCNc1ccc(-c2cc(C(=O)N(C)Cc3cnc(C(C)C)n3C)c3cc(Cl)ccc3n2)nc1C [Compound 544]	6.91	8.22	7.84	–	–	–	–	7.37	–	–	–
CCn1ncc(CN(C)C(=O)c2cc(-n3cc(C)cn3)nc3ccc(Cl)cc23)c1C [Compound 129]	5.34	5.85	5.13	–	–	–	–	5.08	–	–	–
CCn1ncc(CN(C)C(=O)c2cc(-c3ccc(NC4CNC4)c(C)n3)nc3ccc(Cl)cc23)c1C [Compound 389]	–	8.13	7.77	7.09	–	–	–	–	7.14	–	–
CCn1ncc(CN(C)C(=O)c2nc(-c3cccc(-c4ccn[nH]4)c3)nc3ccc(Cl)cc23)c1C [Compound 145]	5.19	5.72	5.55	–	–	–	–	–	–	5.00	–
COCc1ccc2nc(-c3ccc(NCCN(C)C)c(C)n3)cc(C(=O)N(C)Cc3cnc(C4CC4)n3C)c2c1 [Compound 641]	–	–	–	–	6.70	7.66	7.13	–	–	–	6.95
CCn1ncc(CN(C)C(=O)c2cc(-c3cc(NC4CNC4)cc(C)n3)nc3ccc(Cl)cc23)c1C [Compound 547]	6.26	7.90	7.62	–	–	–	–	6.98	–	–	–

Now from value to compound, other results behind:

pIC50 ([1]; H3K18Ac in-cell western)	pIC50 (EP300 (P300(1048-1664)); EP300, SAMDI)	pIC50 (CREBBP (1084-1701); SAMDI)	pIC50 [1, 3]	pIC50 ([1]; 2 h, H3K18Ac in HB-CLS-2 cells, 2 hrs compound incubation)	pIC50 (EP300 (P300(1048-1664)); P300(1048-1664), Peptide #233, Ac-CoA, SAMDI mass spectrometry)	pIC50 (CREBBP (1084-1701); Peptide #233, Acetyl-CoA, SAMDI mass spectrometry)	Structure (SMILES)	pIC50 (647V cells; [2])	pIC50 (647V cells; [4])	pIC50 (647V cells; high throughput proliferation)	pIC50 (647V cells; Homo sapiens, 647-V, 168 h, 647V cells, day 7, CellTiter-Glo)
4.85	5.11	4.77	–	–	–	–	CCn1ncc(CN(C)C(=O)c2nc(-c3ccc(OCCO)cn3)nc3ccc(Cl)cc23)c1C [Compound 173]	4.96	–	–	–
6.95	7.88	7.61	–	–	–	–	CCn1ncc(CN(C)C(=O)c2nc(-c3ccc(OCCCNC)c(C)c3C)nc3ccc(Cl)cc23)c1C [Compound 446]	7.47	–	–	–
7.03	8.08	7.66	–	–	–	–	CCn1ncc(CN(C)C(=O)c2nc(-c3cc4[nH]ncc4cc3C)nc3ccc(Cl)cc23)c1C [Compound 10]	7.11	–	–	–
5.66	4.89	5.04	–	–	–	–	CCn1ncc(CN(C)C(=O)c2nc(-c3ccc4nc(C)n(C(=O)OC(C)(C)C)c4c3)nc3ccc(Cl)cc23)c1C [Compound 104]	6.64	–	–	–
6.82	6.86	7.57	–	–	–	–	CCn1ncc(CN(C)C(=O)c2nc(-c3cc(NC)c4cn[nH]c4c3)nc3ccc(Cl)cc23)c1C [Compound 551]	6.63	–	–	–
6.66	7.04	7.54	–	–	–	–	CCn1ncc(CN(C)C(=O)c2nc(-c3cc(C)nc(N)c3)nc3ccc(Cl)cc23)c1C [Compound 28]	6.74	–	–	–
7.19	7.94	7.55	–	–	–	–	CCn1ncc(CN(C)C(=O)c2cc(-c3ccc(NCC(O)CN(C)C)c(C)n3)nc3ccc(Cl)cc23)c1C (stereo not shown) [Compound 604]	7.55	–	–	–
6.68	7.48	7.57	–	–	–	–	CCn1ncc(CN(C)C(=O)c2nc(-c3ccc(OCC(O)CNC)c(Cl)c3)nc3ccc(Cl)cc23)c1C (stereo not shown) [Compound 25]	7.12	–	–	–
6.22	8.15	7.68	–	–	–	–	CCn1ncc(CN(C)C(=O)c2nc(-c3cc(C)cc(NC4CCNCC4)c3)nc3ccc(Cl)cc23)c1C [Compound 55]	6.62	–	–	–
6.46	6.31	7.13	–	–	–	–	CCn1ncc(CN(C)C(=O)c2nc(-c3cc(C)nc(NCCOC)c3)nc3ccc(Cl)cc23)c1C [Compound 611]	6.51	–	–	–
7.22	8.35	7.86	–	–	–	–	CCn1ncc(CN(C)C(=O)c2nc(-c3cc(C)c4c(N)[nH]nc4c3)nc3ccc(Cl)cc23)c1C [Compound 459]	7.26	–	–	–
–	6.52	7.21	6.46	–	–	–	CCn1ncc(CN(C)C(=O)c2nc(-c3ccc4c(N)[nH]nc4c3C)nc3ccc(Cl)cc23)c1C [Compound 402]	–	6.51	–	–
6.24	6.55	6.89	–	–	–	–	CCn1ncc(CN(C)C(=O)c2nc(-c3ccc(OCCCO)cc3C)nc3ccc(Cl)cc23)c1C [Compound 53]	6.34	–	–	–
5.14	4.96	5.12	–	–	–	–	CCn1ncc(CN(C)C(=O)c2nc(-c3ccc(OCCN(C)C(=O)OC(C)(C)C)c(OC)c3)nc3ccc(Cl)cc23)c1C [Compound 148]	5.41	–	–	–
6.06	7.96	7.64	–	–	–	–	CCn1ncc(CN(C)C(=O)c2nc(-c3cc(Cl)cc(OCCNC)c3)nc3ccc(Cl)cc23)c1C [Compound 60]	6.30	–	–	–
6.43	6.60	7.21	–	–	–	–	CCn1ncc(CN(C)C(=O)c2nc(-c3ccc(OCCO)c(Cl)c3)nc3ccc(Cl)cc23)c1C [Compound 41]	6.80	–	–	–
5.92	5.68	6.17	–	–	–	–	CCn1ncc(CN(C)C(=O)c2nc(-c3ccc(NCCNC)c(C)n3)nc3ccc(Cl)cc23)c1C [Compound 79]	6.07	–	–	–
6.42	8.19	7.55	–	–	–	–	CCn1ncc(CN(C)C(=O)c2nc(-c3cc(C)cc(N[C@H]4CCNC4)c3)nc3ccc(Cl)cc23)c1C [Compound 476]	6.69	–	–	–
5.60	6.03	6.01	–	–	–	–	CCn1ncc(CN(C)C(=O)c2nc(-c3ccc(OCCOC)c(Cl)c3)nc3ccc(Cl)cc23)c1C [Compound 108]	5.66	–	–	–
4.85	4.45	4.32	–	–	–	–	CCn1ncc(CN(C)C(=O)c2nc(-c3nn(C)c(C(=O)NC)c3Cl)nc3ccc(Cl)cc23)c1C [Compound 448]	4.90	–	–	–
